Data as given in patent US11685734B2, “ATM kinase inhibitors and compositions and methods of use thereof” (CHDI Foundation, Inc., priority 2019, dated 2023).

How the values were obtained:
[1] = target: Recombinant, full length human FLAG-tagged ATM (Homo sapiens (Human), UniProt Q13315); test: ATM ELISA for p53 S15 phosphorylation; type: biochemical; conditions: 0.75 nM ATM, 25 nM p53, 10 μM ATP, 30 min at 20° C.; read-out: ATM BIO IC50
Procedure, shortened: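 ELISA of p53 S15 phosphorylation by 0.75 nM full-length FLAG-ATM, with 25 nM myc-p53 and 10 μM ATP in HEPES pH 7.5 with Mg/Mn, 30 min at 20° C. Reactions were EDTA-stopped, captured on anti-myc and detected with anti-pS15/HRP-TMB at 450 nm.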

[2] = target: cellular ATM activity (Homo sapiens (Human), UniProt Q13315); test: Inhibition of cellular ATM activity: etoposide-stimulated KAP1 phosphorylation in U20S cells; type: cell-based; conditions: 100 μM etoposide, 60 min, read-out: ATM CELL IC50
Sequence of cellular ATM activity (Q13315 whole entry): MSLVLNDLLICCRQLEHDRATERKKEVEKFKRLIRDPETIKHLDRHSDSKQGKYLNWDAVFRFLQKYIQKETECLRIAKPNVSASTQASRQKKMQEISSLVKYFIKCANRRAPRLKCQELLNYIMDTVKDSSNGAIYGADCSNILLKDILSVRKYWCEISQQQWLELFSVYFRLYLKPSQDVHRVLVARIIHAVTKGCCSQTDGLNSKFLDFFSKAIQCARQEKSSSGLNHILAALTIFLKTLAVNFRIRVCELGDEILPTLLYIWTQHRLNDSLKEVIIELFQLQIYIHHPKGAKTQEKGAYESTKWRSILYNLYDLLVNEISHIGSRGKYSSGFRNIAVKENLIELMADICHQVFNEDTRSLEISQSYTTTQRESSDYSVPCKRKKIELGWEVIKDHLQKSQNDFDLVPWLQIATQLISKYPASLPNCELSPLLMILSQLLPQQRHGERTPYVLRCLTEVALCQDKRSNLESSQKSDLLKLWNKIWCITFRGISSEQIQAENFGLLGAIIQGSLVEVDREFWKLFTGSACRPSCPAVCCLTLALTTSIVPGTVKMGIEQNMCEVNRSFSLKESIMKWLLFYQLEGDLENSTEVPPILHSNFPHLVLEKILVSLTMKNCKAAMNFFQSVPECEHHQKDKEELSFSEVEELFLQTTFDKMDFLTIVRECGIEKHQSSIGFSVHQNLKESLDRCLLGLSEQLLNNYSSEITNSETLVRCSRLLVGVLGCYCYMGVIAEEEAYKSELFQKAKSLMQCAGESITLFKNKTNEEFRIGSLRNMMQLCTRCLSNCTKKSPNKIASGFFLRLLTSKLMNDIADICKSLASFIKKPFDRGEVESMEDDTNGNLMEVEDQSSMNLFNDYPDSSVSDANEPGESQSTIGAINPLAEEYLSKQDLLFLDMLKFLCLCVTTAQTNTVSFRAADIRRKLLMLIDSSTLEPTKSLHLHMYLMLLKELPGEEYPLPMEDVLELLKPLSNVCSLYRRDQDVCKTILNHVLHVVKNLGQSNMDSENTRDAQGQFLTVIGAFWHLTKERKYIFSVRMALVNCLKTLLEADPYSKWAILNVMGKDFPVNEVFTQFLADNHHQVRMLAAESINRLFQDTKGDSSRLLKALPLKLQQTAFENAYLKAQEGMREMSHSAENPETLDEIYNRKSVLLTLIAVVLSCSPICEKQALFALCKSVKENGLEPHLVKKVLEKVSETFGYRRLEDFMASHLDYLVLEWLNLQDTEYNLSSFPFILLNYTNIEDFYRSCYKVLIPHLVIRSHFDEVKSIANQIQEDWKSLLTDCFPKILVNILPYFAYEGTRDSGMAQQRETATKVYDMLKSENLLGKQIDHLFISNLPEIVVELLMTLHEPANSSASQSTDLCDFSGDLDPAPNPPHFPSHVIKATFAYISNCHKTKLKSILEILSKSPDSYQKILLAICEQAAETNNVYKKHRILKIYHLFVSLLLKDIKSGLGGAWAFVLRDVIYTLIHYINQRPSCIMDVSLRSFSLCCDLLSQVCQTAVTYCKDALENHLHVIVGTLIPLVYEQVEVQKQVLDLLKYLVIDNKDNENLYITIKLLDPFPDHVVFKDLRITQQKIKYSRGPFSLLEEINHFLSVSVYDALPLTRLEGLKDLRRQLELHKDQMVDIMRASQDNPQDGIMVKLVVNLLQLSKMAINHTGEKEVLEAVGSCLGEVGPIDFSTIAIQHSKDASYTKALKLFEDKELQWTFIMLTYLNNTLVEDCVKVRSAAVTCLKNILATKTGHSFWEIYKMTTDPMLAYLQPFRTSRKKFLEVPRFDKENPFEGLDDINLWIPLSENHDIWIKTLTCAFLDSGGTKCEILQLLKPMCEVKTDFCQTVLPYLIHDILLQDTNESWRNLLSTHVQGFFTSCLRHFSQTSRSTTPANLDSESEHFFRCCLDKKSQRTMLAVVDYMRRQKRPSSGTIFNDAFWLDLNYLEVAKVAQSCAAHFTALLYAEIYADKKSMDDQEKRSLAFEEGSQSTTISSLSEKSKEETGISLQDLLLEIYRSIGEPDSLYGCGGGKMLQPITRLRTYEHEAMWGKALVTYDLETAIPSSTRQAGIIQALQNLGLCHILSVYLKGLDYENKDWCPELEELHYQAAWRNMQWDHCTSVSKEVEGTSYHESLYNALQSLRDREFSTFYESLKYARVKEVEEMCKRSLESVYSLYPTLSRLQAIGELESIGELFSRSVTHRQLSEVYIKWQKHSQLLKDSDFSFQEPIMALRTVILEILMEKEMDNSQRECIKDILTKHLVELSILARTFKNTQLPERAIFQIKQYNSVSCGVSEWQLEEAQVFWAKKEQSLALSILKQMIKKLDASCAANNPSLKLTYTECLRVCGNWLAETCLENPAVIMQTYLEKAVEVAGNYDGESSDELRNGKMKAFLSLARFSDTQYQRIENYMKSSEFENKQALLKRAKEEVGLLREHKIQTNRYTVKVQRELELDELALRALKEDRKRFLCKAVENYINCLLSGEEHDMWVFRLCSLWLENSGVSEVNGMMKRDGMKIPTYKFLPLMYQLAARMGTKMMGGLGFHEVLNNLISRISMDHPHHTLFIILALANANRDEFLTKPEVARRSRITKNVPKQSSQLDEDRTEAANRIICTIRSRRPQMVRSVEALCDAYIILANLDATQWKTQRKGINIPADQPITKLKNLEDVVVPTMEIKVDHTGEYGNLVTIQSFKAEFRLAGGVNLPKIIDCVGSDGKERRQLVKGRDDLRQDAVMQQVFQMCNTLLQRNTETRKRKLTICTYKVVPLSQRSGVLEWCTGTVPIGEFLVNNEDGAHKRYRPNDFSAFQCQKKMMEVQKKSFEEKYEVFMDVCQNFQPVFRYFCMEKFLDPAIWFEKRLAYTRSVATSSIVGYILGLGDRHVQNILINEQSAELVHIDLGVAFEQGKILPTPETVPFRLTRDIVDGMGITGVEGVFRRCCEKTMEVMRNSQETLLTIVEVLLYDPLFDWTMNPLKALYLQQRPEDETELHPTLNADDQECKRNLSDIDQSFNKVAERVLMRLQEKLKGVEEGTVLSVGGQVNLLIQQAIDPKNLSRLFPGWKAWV

Sequence of Recombinant, full length human FLAG-tagged ATM (Q13315 whole entry): as above

Row | SMILES | IC50 [1] | IC50 [2]
1 | C[C@@H]1CN(c2cc(=O)[nH]c(N3CCCCC[C@@H]3Cc3cccc(F)c3F)n2)CCO1 [Example 300, 2-((R)-2-(2,3-difluorobenzyl)azepan-1-yl)-6-((R)-2-methylmorpholino)pyrimidin-4(3H)-one] | 93.7 nM | 586 nM
2 | Cn1c(N2CCC[C@@H]2Cc2ccccc2)cc(N2CCOCC2)cc1=O [Example 173, (R)-6-(2-benzylpyrrolidin-1-yl)-1-methyl-4-morpholinopyridin-2(1H)-one] | 37.8 nM | 1900 nM
3 | COc1ccc(C[C@H]2CCCN2c2cc(N3CCOCC3)cc(=O)[nH]2)cc1 [Example 13, (R)-6-(2-(4-methoxybenzyl)pyrrolidin-1-yl)-4-morpholino pyridin-2(1H)-one] | 70.5 nM | 4490 nM
4 | C[C@@H]1CN(c2cc(=O)[nH]c(N3CCC(F)(F)[C@@H]3Cc3ccccc3)n2)CCO1 [Example 322, 2-((S)-2-benzyl-3,3-difluoropyrrolidin-1-yl)-6-((R)-2-methylmorpholino)pyrimidin-4(3H)-one] | 33.2 nM | 2840 nM
5 | O=c1cc(N2CCOCC2)cc(N2CCCCC[C@@H]2Cc2ccsc2)[nH]1 [Example 64, (R)-4-morpholino-6-(2-(thiophen-3-ylmethyl)azepan-1-yl)pyridin-2(1H)-one] | 42.8 nM | 933 nM
6 | COc1ccccc1C[C@H]1CCCCCN1c1nc(N2CCOCC2)cc(=O)[nH]1 [Example 201] | 14.1 nM | 693 nM
7 | CC1C[C@H](Cc2ccccc2)N(c2cc(N3CCOCC3)cc(=O)[nH]2)C1 (single isomer, unassigned) [Example 101, 6-((2R,4R*)-2-benzyl-4-methylpyrrolidin-1-yl)-4-morpholinopyridin-2(1H)-one] | 17.1 nM | 1410 nM
8 | CC(c1ccccc1)C1CCCN1c1nc(N2CCOCC2)cc(=O)[nH]1 (racemic) [Example 252, 6-morpholino-2-((R*)-2-((S*)-1-phenylethyl)pyrrolidin-1-yl)pyrimidin-4(3H)-one] | 63.7 nM | 2290 nM
9 | COC[C@@H](C)Oc1ccc(C[C@H]2CCCCCN2c2cc(N3CCOCC3)cc(=O)[nH]2)cc1 [Example 151, 6-((R)-2-(4-(((R)-1-methoxypropan-2-yl)oxy)benzyl)azepan-1-yl)-4-morpholinopyridin-2(1H)-one] | 20.9 nM | 1020 nM
10 | COc1c(F)cccc1C[C@H]1CCCCCN1c1nc(N2CCOCC2)cc(=O)[nH]1 [Example 231] | 84 nM | 1090 nM
11 | C[C@H]1CCCN(c2nc(N3CCO[C@H](C)C3)cc(=O)[nH]2)[C@@H](Cc2ccc(F)cc2)C1 [Example 313, 2-((2R,4S)-2-(4-fluorobenzyl)-4-methylazepan-1-yl)-6-((R)-2-methylmorpholino)pyrimidin-4(3H)-one] | 42.3 nM | 1660 nM
12 | C[C@H]1CCN(c2nc(N3CCOCC3)cc(=O)[nH]2)[C@H]1Cc1ccccc1 [Example 261, 2-((2S,3S)-2-benzyl-3-methylpyrrolidin-1-yl)-6-morpholinopyrimidin-4(3H)-one] | 61.3 nM | 3050 nM
13 | CC(C)(c1ccccc1)[C@H]1CCCN1c1nc(N2CCOCC2)cc(=O)[nH]1 [Example 196] | 46.9 nM | 975 nM
14 | O=c1cc(N2CCOCC2)nc(N2CCCC2Cn2cnc3ccccc32)[nH]1 (centres unmarked) [Example 192] | 30 nM | 1340 nM
15 | Cc1cc(C[C@H]2CCCN2c2nc(N3CCO[C@H](C)C3)cc(=O)[nH]2)cc(C)n1 [Example 277, 2-[(2R)-2-[(2,6-dimethyl-4-pyridyl)methyl]pyrrolidin-1-yl]-4-[(2R)-2-methylmorpholin-4-yl]-1H-pyrimidin-6-one] | 57 nM | 417 nM

The next compounds have a lower IC50 [1] than those just listed; values first:

Row | IC50 [1] | IC50 [2] | SMILES
16 | 5.3 nM | 350 nM | COc1ccccc1C[C@H]1CC2(CC2)CN1c1nc(N2CCOCC2)cc(=O)[nH]1 [Example 264, (R)-2-(6-(2-methoxybenzyl)-5-azaspiro[2.4]heptan-5-yl)-6-morpholinopyrimidin-4(3H)-one]
17 | 4.4 nM | 207 nM | O=c1cc(N2CCOCC2)nc(N2C[C@@H]3C[C@@H]3[C@@H]2Cc2ccc(F)cc2)[nH]1 [Example 207]
18 | 1 nM | 74 nM | C[C@@H]1CCN(c2nc(N3CCOCC3)cc(=O)[nH]2)[C@H]1Cc1ccccc1 [Example 215]
19 | 5.7 nM | 163 nM | O=c1cc(N2CCOCC2)nc(N2CCCCC[C@@H]2Cc2ccc(F)cc2)[nH]1 [Example 222]
20 | 8.3 nM | 347 nM | COc1ccccc1C[C@H]1[C@H](C)CCN1c1cc(N2CCOCC2)cc(=O)[nH]1 [Example 47, 6-((2S,3R)-2-(2-methoxybenzyl)-3-methylpyrrolidin-1-yl)-4-morpholinopyridin-2(1H)-one]
21 | 5.3 nM | 538 nM | C[C@@H]1CN(c2cc(=O)[nH]c(N3CC[C@@H](F)[C@@H]3Cc3ccccc3)n2)CCO1 [Example 319, 2-((2S,3R)-2-benzyl-3-fluoropyrrolidin-1-yl)-6-((R)-2-methylmorpholino)pyrimidin-4(3H)-one]
22 | 3.7 nM | 446 nM | O=c1cc(N2CCOCC2)nc(N2C[C@@H]3C[C@@H]3[C@@H]2Cc2ccccc2)[nH]1 [Example 211]
23 | 11.2 nM | 498 nM | O=c1cc(N2CCOCC2)cc(N2CCCC(F)(F)C[C@@H]2Cc2ccccc2)[nH]1 [Example 74, (S)-6-(2-benzyl-4,4-difluoroazepan-1-yl)-4-morpholinopyridin-2(1H)-one]
24 | 3.9 nM | 421 nM | O=c1cc(N2CCOCC2)nc(N2CCCCC[C@@H]2Cc2ccsc2)[nH]1 [Example 248]
25 | 7.4 nM | 818 nM | C[C@@H]1CN(c2cc(=O)[nH]c(N3CCCCC[C@@H]3Cc3ccccc3)n2)CCO1 [Example 270, 2-((R)-2-benzylazepan-1-yl)-6-((R)-2-methylmorpholino)pyrimidin-4(3H)-one]
